Measured values: ChEMBL document CHEMBL5154649, “Design, synthesis, and characterization of novel aminoalcohol quinolines with strong in vitro antimalarial activity” (Eur J Med Chem, 2022)

Columns and labels:
Plasmodium falciparum [1] = experiment: Antiplasmodial activity against CQ-susceptible Plasmodium falciparum 3D7 assessed as inhibition of parasite growth measured after 48 hrs by SYBR Green 1 dye based fluorescence assay; type: functional, organism-based; conditions: 3D7, 48 h
[2] = Cytotoxicity against human HepG2 cells assessed as reduction in cell viability incubated for 72 hrs by MTT assay; type: toxicity, cell-based
[3] = Selectivity index, ratio of IC50 for cytotoxicity against human HepG2 cells to IC50 for antiplasmodial activity against Plasmodium falciparum 3D7 infected in human erythrocytes by HRP2-ELISA; type: toxicity, cell-based; conditions: read-out: Ratio IC50
Plasmodium falciparum [4] = experiment: Antiplasmodial activity CQ-resistant Plasmodium falciparum W2 infected in human erythrocytes assessed as inhibition of parasite growth measured after 72 hrs by HRP2-ELISA; type: functional, organism-based; conditions: W2, Erythrocyte
[5] = Cytotoxicity against Chinese hamster CHO cells assessed as reduction in cell viability incubated for 24 hrs by MTT assay; type: toxicity, cell-based, Cricetulus griseus
Plasmodium falciparum [6] = experiment: Selectivity index, ratio of IC50 for antiplasmodial activity against CQ-susceptible Plasmodium falciparum 3D7 to IC50 for antiplasmodial activity CQ-resistant Plasmodium falciparum W2 by HRP2-ELISA; type: functional
[7] = Cytotoxicity against human THP-1 cells assessed as reduction in cell viability incubated for 72 hrs by MTT assay; type: toxicity, cell-based
[8] = Selectivity index, ratio of IC50 for cytotoxicity against chinese hamster CHO cells to IC50 for antiplasmodial activity against Plasmodium falciparum 3D7 infected in human erythrocytes by HRP2-ELISA; type: toxicity, cell-based; conditions: read-out: Ratio IC50
Plasmodium falciparum [9] = experiment: Antiplasmodial activity against CQ-resistant Plasmodium falciparum W2 assessed as inhibition of parasite growth measured after 48 hrs by SYBR Green 1 dye based fluorescence assay; type: functional, organism-based; conditions: W2, 48 h
Plasmodium falciparum [10] = experiment: Selectivity index, ratio of IC50 for antiplasmodial activity against CQ-susceptible Plasmodium falciparum 3D7 to IC50 for antiplasmodial activity against CQ-resistant Plasmodium falciparum W2 by SYBR Green 1 dye based fluorescence assay; type: functional
[11] = Cytotoxicity against human HFF cells assessed as reduction in cell viability incubated for 72 hrs by MTT assay; type: toxicity, cell-based
[12] = Selectivity index, ratio of IC50 for human HFF cells to IC50 for antiplasmodial activity against Plasmodium falciparum 3D7 infected in human erythrocytes by HRP2-ELISA; type: toxicity, cell-based; conditions: read-out: Ratio IC50
[13] = Selectivity index, ratio of IC50 for cytotoxicity against human THP-1 cells to IC50 for antiplasmodial activity against Plasmodium falciparum 3D7 infected in human erythrocytes by HRP2-ELISA; type: toxicity, cell-based; conditions: read-out: Ratio IC50
Plasmodium falciparum [14] = experiment: Antiplasmodial activity against CQ-susceptible Plasmodium falciparum 3D7 infected in human erythrocytes assessed as inhibition of parasite growth measured after 72 hrs by HRP2-ELISA; type: functional, organism-based; conditions: 3D7, Erythrocyte

SMILES	IC50 (Plasmodium falciparum [1]) [nM]	IC50 (Plasmodium falciparum [9]) [nM]	Ratio IC50 (Plasmodium falciparum [10])	further results
OCCCC(CCCO)(CCCO)NC[C@@H](O)c1cc(C(F)(F)F)nc2c(C(F)(F)F)cccc12	> 1000	–	–	–
O[C@H](CNCC1CC1)c1cc(C(F)(F)F)nc2c(C(F)(F)F)cccc12	4.1	4.1	1	IC50 at 72 h [2]: 4300 nM; selectivity ratio [3]: 333; IC50 (Plasmodium falciparum [4]): 15.8 nM; IC50 at 24 h [5]: 31000 nM; Ratio IC50 (Plasmodium falciparum [6]): 0.8; IC50 at 72 h [7]: 6900 nM; selectivity ratio [8]: 2400; IC50 at 72 h [11]: 18500 nM; selectivity ratio [12]: 1430; selectivity ratio [13]: 534; IC50 (Plasmodium falciparum [14]): 12.9 nM
OC[C@@H](NC[C@H](O)c1cc(C(F)(F)F)nc2c(C(F)(F)F)cccc12)c1ccccc1	104	15.9	6.5	–
O[C@H](CNCCN1CCN(C[C@@H](O)c2cc(C(F)(F)F)nc3c(C(F)(F)F)cccc23)CC1)c1cc(C(F)(F)F)nc2c(C(F)(F)F)cccc12	361	61.8	5.8	–
O[C@H](CNCCNC(c1ccccc1)c1ccccc1)c1cc(C(F)(F)F)nc2c(C(F)(F)F)cccc12	35.2	29.6	1.2	IC50 at 72 h [2]: 6400 nM; selectivity ratio [3]: 268; IC50 (Plasmodium falciparum [4]): 14.1 nM; IC50 at 24 h [5]: 9000 nM; Ratio IC50 (Plasmodium falciparum [6]): 1.7; IC50 at 72 h [7]: 8900 nM; selectivity ratio [8]: 377; IC50 at 72 h [11]: 16600 nM; selectivity ratio [12]: 694; selectivity ratio [13]: 372; IC50 (Plasmodium falciparum [14]): 23.9 nM
O[C@@H](CNCCN1CCN(C[C@H](O)c2cc(C(F)(F)F)nc3c(C(F)(F)F)cccc23)CC1)c1cc(C(F)(F)F)nc2c(C(F)(F)F)cccc12	453	182	2.5	–
O[C@H](CNCCCN1CCN(CCCNC[C@@H](O)c2cc(C(F)(F)F)nc3c(C(F)(F)F)cccc23)CC1)c1cc(C(F)(F)F)nc2c(C(F)(F)F)cccc12	> 1000	534	> 1.9	–
COc1cccc2c1C(=O)c1c(O)c3c(c(O)c1C2=O)C[C@@](O)(C(=O)CO)C[C@@H]3O[C@H]1C[C@H](N)[C@H](O)[C@H](C)O1 [DOXORUBICIN]	–	–	–	IC50 at 24 h [5]: 3600 nM; IC50 at 72 h [7]: 20 nM
C[C@H]1[C@@H](O)O[C@@H]2O[C@@]3(C)CC[C@H]4[C@H](C)CC[C@@H]1[C@@]24OO3 [ARTENIMOL]	–	–	–	IC50 (Plasmodium falciparum [4]): 3 nM; Ratio IC50 (Plasmodium falciparum [6]): 0.9; IC50 (Plasmodium falciparum [14]): 2.8 nM
OC[C@@H](Cc1ccccc1)NC[C@H](O)c1cc(C(F)(F)F)nc2c(C(F)(F)F)cccc12	36.2	54.3	0.7	IC50 at 72 h [2]: 16800 nM; selectivity ratio [3]: 158; IC50 (Plasmodium falciparum [4]): 63.8 nM; IC50 at 24 h [5]: 26600 nM; Ratio IC50 (Plasmodium falciparum [6]): 1.7; IC50 at 72 h [7]: 7800 nM; selectivity ratio [8]: 250; IC50 at 72 h [11]: 37400 nM; selectivity ratio [12]: 351; selectivity ratio [13]: 73; IC50 (Plasmodium falciparum [14]): 106 nM
OC[C@H](NC[C@@H](O)c1cc(C(F)(F)F)nc2c(C(F)(F)F)cccc12)c1ccccc1	103	10.1	10.3	–
OCCNC[C@@H](O)c1cc(C(F)(F)F)nc2c(C(F)(F)F)cccc12	> 1000	–	–	–
OCCNC[C@H](O)c1cc(C(F)(F)F)nc2c(C(F)(F)F)cccc12	> 1000	–	–	–
O[C@H](CNCCCCCCCCCCCCNC[C@@H](O)c1cc(C(F)(F)F)nc2c(C(F)(F)F)cccc12)c1cc(C(F)(F)F)nc2c(C(F)(F)F)cccc12	249	837	0.3	–
COC[C@H](C)NC[C@H](O)c1cc(C(F)(F)F)nc2c(C(F)(F)F)cccc12	14.4	5.1	2.8	–
CC(C)(CO)NC[C@@H](O)c1cc(C(F)(F)F)nc2c(C(F)(F)F)cccc12	254	137	1.9	–
NC[C@@H](O)c1cc(C(F)(F)F)nc2c(C(F)(F)F)cccc12	–	1460	–	–
OCCCC(CCCO)(CCCO)NC[C@H](O)c1cc(C(F)(F)F)nc2c(C(F)(F)F)cccc12	> 1000	–	–	–
O[C@@H](CNCCCCCCCCCCCCNC[C@H](O)c1cc(C(F)(F)F)nc2c(C(F)(F)F)cccc12)c1cc(C(F)(F)F)nc2c(C(F)(F)F)cccc12	> 1000	> 1000	–	–
C[C@@H](CO)NC[C@@H](O)c1cc(C(F)(F)F)nc2c(C(F)(F)F)cccc12	166	–	–	–
O[C@@H](CN1CCN(CCN2CCN(C[C@H](O)c3cc(C(F)(F)F)nc4c(C(F)(F)F)cccc34)CC2)CC1)c1cc(C(F)(F)F)nc2c(C(F)(F)F)cccc12	147	> 1000	–	–
O[C@@H](CN1CCN(C[C@H](O)c2cc(C(F)(F)F)nc3c(C(F)(F)F)cccc23)CC1)c1cc(C(F)(F)F)nc2c(C(F)(F)F)cccc12	> 1000	> 1000	–	–
O[C@@H](CN1CCN(C(c2ccccc2)c2ccccc2)CC1)c1cc(C(F)(F)F)nc2c(C(F)(F)F)cccc12	53.6	29.3	1.8	–

SMILES	IC50 (Plasmodium falciparum [1]) [nM]	IC50 (Plasmodium falciparum [9]) [nM]	Ratio IC50 (Plasmodium falciparum [10])	further results
CCNCc1cc(Nc2ccnc3cc(Cl)ccc23)ccc1O [DESETHYL AMODIAQUINE]	–	–	–	IC50 (Plasmodium falciparum [4]): 100 nM; Ratio IC50 (Plasmodium falciparum [6]): 0.25; IC50 (Plasmodium falciparum [14]): 24.7 nM
C[C@H](CO)NC[C@@H](O)c1cc(C(F)(F)F)nc2c(C(F)(F)F)cccc12 (single isomer, unassigned)	68.5	10	6.85	–
O[C@H](CN1CCN(C[C@@H](O)c2cc(C(F)(F)F)nc3c(C(F)(F)F)cccc23)CC1)c1cc(C(F)(F)F)nc2c(C(F)(F)F)cccc12	953	707	1.35	–
NCCNC[C@H](O)c1cc(C(F)(F)F)nc2c(C(F)(F)F)cccc12	> 1000	> 1000	–	–
NCCCCCCCCCCCCNC[C@H](O)c1cc(C(F)(F)F)nc2c(C(F)(F)F)cccc12	176	379	0.5	–
OCCN1CCN(C[C@@H](O)c2cc(C(F)(F)F)nc3c(C(F)(F)F)cccc23)CC1	> 1000	–	–	–
O[C@@H](CN1CCNCC1)c1cc(C(F)(F)F)nc2c(C(F)(F)F)cccc12	> 1000	–	–	–
O[C@H](CN1CCN(CCN2CCN(C[C@@H](O)c3cc(C(F)(F)F)nc4c(C(F)(F)F)cccc34)CC2)CC1)c1cc(C(F)(F)F)nc2c(C(F)(F)F)cccc12	726	–	–	–
O[C@H](CN1CCNCC1)c1cc(C(F)(F)F)nc2c(C(F)(F)F)cccc12	> 1000	–	–	–
C=C[C@H]1CN2CC[C@H]1C[C@H]2[C@H](O)c1ccnc2ccc(OC)cc12 [QUININE]	–	–	–	IC50 (Plasmodium falciparum [4]): 474 nM; Ratio IC50 (Plasmodium falciparum [6]): 0.2; IC50 (Plasmodium falciparum [14]): 74.2 nM
COC[C@H](C)NC[C@@H](O)c1cc(C(F)(F)F)nc2c(C(F)(F)F)cccc12	11.7	57.2	0.2	–
CC(C)(CO)NC[C@H](O)c1cc(C(F)(F)F)nc2c(C(F)(F)F)cccc12	99.3	31.5	3.15	–
O[C@@H](CN1CCN(Cc2cccc3ccccc23)CC1)c1cc(C(F)(F)F)nc2c(C(F)(F)F)cccc12	> 1000	–	–	–
C[C@@H](CO)NC[C@H](O)c1cc(C(F)(F)F)nc2c(C(F)(F)F)cccc12 (single isomer, unassigned)	138	51.7	2.7	–
OC[C@@H](NC[C@@H](O)c1cc(C(F)(F)F)nc2c(C(F)(F)F)cccc12)c1ccccc1	94.4	9.8	9.6	–
O[C@@H](CNCCCN1CCN(CCCNC[C@H](O)c2cc(C(F)(F)F)nc3c(C(F)(F)F)cccc23)CC1)c1cc(C(F)(F)F)nc2c(C(F)(F)F)cccc12	> 1000	321	> 3.1	–
O[C@H](CN1CCN(C(c2ccccc2)c2ccccc2)CC1)c1cc(C(F)(F)F)nc2c(C(F)(F)F)cccc12	39	36.7	1.1	–
OC[C@H](NC[C@H](O)c1cc(C(F)(F)F)nc2c(C(F)(F)F)cccc12)c1ccccc1	136	29.9	4.55	–
NCCCCCCCCCCCCNC[C@@H](O)c1cc(C(F)(F)F)nc2c(C(F)(F)F)cccc12	23.9	43.8	0.55	–
OCCN1CCN(C[C@H](O)c2cc(C(F)(F)F)nc3c(C(F)(F)F)cccc23)CC1	> 1000	–	–	–
C[C@H](CO)NC[C@H](O)c1cc(C(F)(F)F)nc2c(C(F)(F)F)cccc12	48.2	10.1	4.8	–
O[C@H](CN1CCN(Cc2cccc3ccccc23)CC1)c1cc(C(F)(F)F)nc2c(C(F)(F)F)cccc12	> 1000	–	–	–
NCCNC[C@@H](O)c1cc(C(F)(F)F)nc2c(C(F)(F)F)cccc12	> 1000	> 1000	–	–
